Where no end group is shown, it is not given here. [ ]: non-standard residue; d: D form.
biological target: IL-8 receptors on human neutrophils (human); experiment: inhibition of 125I-IL-8 binding to human neutrophils, method of Example I; D-amino acid heptamer series; conditions: not given

Substance | % INHIB. [%]
rrwwcra (peptide) | 95.3
rrwwcrd (peptide) | 107
rrwwcre (peptide) | 99.1
rrwwcrf (peptide) | 106
rrwwcrg (peptide) | 108
rrwwcrh (peptide) | 107
rrwwcri (peptide) | 93.9
rrwwcrk (peptide) | 113
rrwwcrl (peptide) | 99.1
rrwwcrm (peptide) | 96.2
rrwwcrn (peptide) | 111
rrwwcrp (peptide) | 87.3
rrwwcrq (peptide) | 89.2
rrwwcrr (peptide) | 103
rrwwcrs (peptide) | 70.4
rrwwcrt (peptide) | 56.3
rrwwcrv (peptide) | 89.2
rrwwcrw (peptide) | 106
rrwwcry (peptide) | 85.4

test system: IL-8 receptors on neutrophils; experiment: Inhibition of 125I-labeled IL-8 binding to human neutrophils; conditions: not given
Protocol: Therefore, in pursuing this aim, the present inventors assayed various other peptide compositions for IL-8 inhibitory activity by screening a library of 400 groups of hexapeptides. In these screening assays, ^125I-labeled interleukin-8 (10^−12 M) was mixed with 100 μM peptide, then added to neutrophils and incubated at 4° C. for 90 min. The bound radioactivity was separated from unbound by centrifugation through a dense cushion of a mixture of paraffin and silicon oils and the ^125I bound to neutrophils was counted in a gamma radiation spectrometer, allowing the results to be expressed as the percent of IL-8 binding which was inhibited.
The use of human subjects for acquisition of neutrophils was approved by the Institutional Review Board for human experimentation. For the preparation of neutrophils, human blood was anticoagulated with heparin for enzyme release studies and with 0.33% sodium citrate for other studies. For chemotactic and enzyme release studies neutrophils were separated by dextran sedimentation and erythrocyte lysis by the method of Boyum (Kohler and Milstein, 1975). For binding studies and cytotoxic studies, the neutrophils were further purified in gradients of Percoll (Pharmacia Fine Chemicals, Piscataway, N.J.) to a purity of 90-93% (Kohler and Milstein, 1975).
Recombinant human IL-8 (72 amino acids; Pepro Tech Inc., Rocky Hill, N.J.) was radioactively labeled with ^125I by the chloramine T method of Hunter and Greenwood (Hunter and Greenwood, 1962). Binding studies were performed according to Besemer et al. (1989), as follows: Neutrophils in phosphate buffered saline pH 7.4 (PBS) containing 0.1% bovine serum albumin (BSA) were incubated with labeled ligand in the presence or absence of the peptide being tested for 90 min at 4° C. to reach equilibrium and then centrifuged at 12,000×g for 3 min in Beckman B microfuge (Beckman Instruments, Fullerton, Calif.), through a cushion consisting of a mixture of paraffin oil Fisher Scientific, Fair Lawn, N.J.) and silicon oil (Serva Co., N.Y., N.Y.). The pellet and supernatant were then counted in a gamma radiation spectrometer. The non-specific binding was estimated to measure the binding in the presence of 100-fold excess of non-labeled ligand. The binding constants were calculated using the computer programs Lundon I and Lundon II.
In these studies, a screening for inhibition was carried out at 100 μM concentration of the peptide being tested, with a 10^−12 M concentration of IL-8. In the first series of studies, twenty peptides were synthesized with the carboxyl-terminal residue of RRWWCX (SEQ ID NO:23) being changed to each of the standard protein amino acids in turn.

Substance | ability to inhibit IL-8 binding to neutrophils | potency as inhibitor relative to Ac-rrwwcr-NH2
Ac-KELRCQ-NH2 [IL-8 homologue peptide, reference compound] | None of these peptides had the ability to inhibit IL-8 binding | 
Arg Arg Trp Trp Cys Arg Cys (Ac-[dR][dR][dW][dW][dC][dR][dC]-NH2; not fully specified; printed as Arg Arg Trp Trp Cys Arg Cys; cysteine pairing not given here) [rrwwcrc] |  | almost four times as potent
Arg Arg Trp Trp Cys Asp (Ac-RRWWCD; also: D-amino acids, positions not given here) | only minimally active | 
ELRCQCIKTY [IL-8 homologue including the C-X-C motif, reference compound] | None of these peptides had the ability to inhibit IL-8 binding | 
ELRMQMIKTY [reference compound] | None of these peptides had the ability to inhibit IL-8 binding | 
ELRSQSIKTY [reference compound] | None of these peptides had the ability to inhibit IL-8 binding | 
GWRRWWCDAVLY [segment of cell surface glycoprotein CD11c precursor, human leukocyte adhesion receptor p150,95 alpha chain, reference compound] | lack of activity | 

same assay, conditions: 10 μM peptide (FIG. 9)

Substance | inhibition of IL-8 binding to neutrophils [%]
Arg Arg Trp Trp Cys Arg Cys (Ac-[dR][dR][dW][dW][dC][dR][dC]-NH2; not fully specified; printed as Arg Arg Trp Trp Cys Arg Cys; cysteine pairing not given here) [rrwwcrc] | 80

same assay, conditions: 20 μM peptide

Substance | IL-8 binding inhibition at lower peptide concentration (FIG. 1)
RRWWCN | did indeed exhibit certain inhibitory properties

same assay, conditions: 100 μM peptide, 10^−12 M IL-8; hexamer RRWWCX series, first screen

Substance | % INHIB. (IL-8 binding to neutrophils) [%]
Arg Arg Trp Trp Cys Asp (Ac-RRWWCD; also: D-amino acids, positions not given here) | 11.8
RRWWCA | 51.9
RRWWCC (cysteine pairing not given here) | 75.1
RRWWCE | 17.1
RRWWCF | 80.2
RRWWCG | 86.8
RRWWCH | 87.9
RRWWCI | 45.8
RRWWCK | 110.3
RRWWCL | 86.9
RRWWCM | 69.0
RRWWCN | −12.0
RRWWCP | 88.3
RRWWCQ | 19.2
RRWWCS | 79.3
RRWWCT | 88.4
RRWWCV | 81.1
RRWWCW | 66.4
RRWWCY | 77.9

same assay, conditions: first set of heptamer studies, D-amino acid RRWWCRX series; methodology of Example I

Substance | % INHIB. (IL-8 binding to neutrophils) [%]
Arg Arg Trp Trp Cys Arg Ala ([dR][dR][dW][dW][dC][dR][dA]) [rrwwcra] | 95.3
Arg Arg Trp Trp Cys Arg Arg ([dR][dR][dW][dW][dC][dR][dR]) [rrwwcrr] | 102.8
Arg Arg Trp Trp Cys Arg Asn ([dR][dR][dW][dW][dC][dR][dN]) [rrwwcrn] | 110.8
Arg Arg Trp Trp Cys Arg Asp ([dR][dR][dW][dW][dC][dR][dD]) [rrwwcrd] | 107.0
Arg Arg Trp Trp Cys Arg Cys (Ac-[dR][dR][dW][dW][dC][dR][dC]-NH2; not fully specified; printed as Arg Arg Trp Trp Cys Arg Cys; cysteine pairing not given here) [rrwwcrc] | 107.7
Arg Arg Trp Trp Cys Arg Gln ([dR][dR][dW][dW][dC][dR][dQ]) [rrwwcrq] | 89.2
Arg Arg Trp Trp Cys Arg Glu ([dR][dR][dW][dW][dC][dR][dE]) [rrwwcre] | 99.1
Arg Arg Trp Trp Cys Arg Gly ([dR][dR][dW][dW][dC][dR]G) [rrwwcrg] | 108.0
Arg Arg Trp Trp Cys Arg His ([dR][dR][dW][dW][dC][dR][dH]) [rrwwcrh] | 107.0
Arg Arg Trp Trp Cys Arg Ile ([dR][dR][dW][dW][dC][dR][dI]) [rrwwcri] | 93.9
Arg Arg Trp Trp Cys Arg Leu ([dR][dR][dW][dW][dC][dR][dL]) [rrwwcrl] | 99.1
Arg Arg Trp Trp Cys Arg Lys ([dR][dR][dW][dW][dC][dR][dK]) [rrwwcrk] | 113.1
Arg Arg Trp Trp Cys Arg Met ([dR][dR][dW][dW][dC][dR][dM]) [rrwwcrm] | 96.2
Arg Arg Trp Trp Cys Arg Phe ([dR][dR][dW][dW][dC][dR][dF]) [rrwwcrf] | 105.6
Arg Arg Trp Trp Cys Arg Pro ([dR][dR][dW][dW][dC][dR][dP]) [rrwwcrp] | 87.3
Arg Arg Trp Trp Cys Arg Ser ([dR][dR][dW][dW][dC][dR][dS]) [rrwwcrs] | 70.4
Arg Arg Trp Trp Cys Arg Thr ([dR][dR][dW][dW][dC][dR][dT]) [rrwwcrt] | 56.3
Arg Arg Trp Trp Cys Arg Trp ([dR][dR][dW][dW][dC][dR][dW]) [rrwwcrw] | 106.3
Arg Arg Trp Trp Cys Arg Tyr ([dR][dR][dW][dW][dC][dR][dY]) [rrwwcry] | 85.4
Arg Arg Trp Trp Cys Arg Val ([dR][dR][dW][dW][dC][dR][dV]) [rrwwcrv] | 89.2

same assay, conditions: lower peptide concentration (FIG. 9)

Substance | more effective than the next best heptamer peptide [%]
Arg Arg Trp Trp Cys Arg Cys (Ac-[dR][dR][dW][dW][dC][dR][dC]-NH2; not fully specified; printed as Arg Arg Trp Trp Cys Arg Cys; cysteine pairing not given here) [rrwwcrc] | ~56

same assay, conditions: synthetic peptides, standard assay (Table 6)

Substance | % Binding Inhibition (IL-8 binding to neutrophils) [%]
Ac-KELRCQ-NH2 [IL-8 homologue peptide, reference compound] | −0.4 ± 11.8
ELRCQCIKTY [IL-8 homologue including the C-X-C motif, reference compound] | 7.6 ± 2.1
ELRMQMIKTY [reference compound] | −6.9 ± 3.0
ELRSQSIKTY [reference compound] | 5.8 ± 3.9
GWRRWWCDAVLY [segment of cell surface glycoprotein CD11c precursor, human leukocyte adhesion receptor p150,95 alpha chain, reference compound] | −12.9 ± 2.9

biological target: IL-8 receptors on human neutrophils (human); experiment: inhibition of 125I-IL-8 (10^-12 M) binding to human neutrophils, peptide 100 µM; conditions: not given

Substance | % INHIB. [%]
RRWWCA (peptide) | 51.9
RRWWCC (peptide) | 75.1
RRWWCD (peptide) | 11.8
RRWWCE (peptide) | 17.1
RRWWCF (peptide) | 80.2
RRWWCG (peptide) | 86.8
RRWWCH (peptide) | 87.9
RRWWCI (peptide) | 45.8
RRWWCK (peptide) | 110
RRWWCL (peptide) | 86.9
RRWWCM (peptide) | 69
RRWWCN (peptide) | -12
RRWWCP (peptide) | 88.3
RRWWCQ (peptide) | 19.2
RRWWCS (peptide) | 79.3
RRWWCT (peptide) | 88.4
RRWWCV (peptide) | 81.1
RRWWCW (peptide) | 66.4
RRWWCY (peptide) | 77.9

Reference: patent US6355619B1, “Peptide tumor cell growth inhibitors” (Board of Regents, The University of Texas System, priority 1996, dated 2002)
